Like-named read-outs stand apart in the source and are kept apart here.
What was measured:
zebrafish larvae = assay: Zebrafish larvae exposure, metabolite identification by LC-HRMS/MS; conditions: larvae 4 dpf, 24 h, larvae extract, one replicate of n = 3, n.d. = not detected; for Absolute peak area, Zebrafish larvae [25 μM]: 25 μM 4F-MDMB-BINACA in medium; for Absolute peak area, Zebrafish larvae [100 µM]: 100 µM parent NPS in medium
[1] = n = 2, according to literature, cited from earlier work
HepaRG cells = assay: Incubations with HepaRG cells, metabolite identification by LC-HRMS/MS; format: in vitro ADME, human; conditions: 24 h, cell culture medium, one replicate of n = 3, n.d. = not detected; for Absolute peak area, HepaRG [25 μM]: 25 μM parent NPS; for Absolute peak area, HepaRG [250 μM]: 250 μM parent NPS
[2] = 4F-PHP and metabolites, ref Wagmann et al., 2019a
[3] = 3,4-DMA-NBOMe and metabolites, ref Caspar et al., 2018
[4] = 1P-LSD and metabolites, ref Wagmann et al., 2019b
[5] = ephylone and metabolites, ref Wagmann et al., 2019a

SMILES	Absolute peak area, Zebrafish larvae [100 µM] (zebrafish larvae)	Absolute peak area, HepaRG [25 μM] (HepaRG cells)	Absolute peak area, HepaRG [250 μM] (HepaRG cells)	further results
COC(=O)C(NC(=O)c1nn(CCCCF)c2ccccc12)C(C)(C)COC1OC(C(=O)O)C(O)C(O)C1O (stereo not shown) [MB25]	–	–	–	Absolute peak area, Zebrafish larvae [25 μM] (zebrafish larvae): 1.75E+07
CCCCC(C(=O)c1ccc(F)cc1)N1CCCC1=O (stereo not shown) [MP4]	8.64E+05	–	–	Detection in pHLS9 [25 µM] [1, 2]: +
CCN(CC)C(=O)C1C=C2c3cccc4[nH]cc(c34)C(O)C2NC1 (stereo not shown) [ML10]	6.10E+04	–	–	–
CN1C[C@H](C(=O)O)C=C2c3cccc4[nH]cc(c34)C[C@H]21 [ML2]	3.63E+05	5.16E+06	1.39E+07	–
COc1ccc(CC(C)NCc2ccccc2O)cc1OC (stereo not shown) [MN7]	1.19E+08	1.19E+07	1.17E+08	Detection in pHLS9 [25 µM] [1, 3]: +
CC(O)CCC(C(O)c1ccc(F)cc1)N1CCCC1 (stereo not shown) [MP9]	3.78E+07	8.15E+05	6.48E+06	–
CCC(=O)n1cc2c3c(cccc31)C1=C[C@@H](C(=O)N(CC)CC)CN(C)[C@@H]1C2O (stereo partly shown) [ML24]	3.37E+07	–	–	–
CCN(CC)C(=O)[C@@H]1C=C2c3cccc4c3C(O)(C[C@H]2N(C)C1)C(=O)N4 (stereo partly shown) [ML18, 2−oxo−3−hydroxy LSD]	6.93E+06	7.00E+06	3.67E+06	Detection in pHLS9 [25 µM] [1, 4]: +
CCNC(=O)[C@@H]1C=C2c3cccc4[nH]cc(c34)C[C@H]2N(C)C1 [ML4]	6.17E+07	3.19E+07	2.58E+08	Detection in pHLS9 [25 µM] [1, 4]: +
CN1C[C@H](C(N)=O)C=C2c3cccc4[nH]cc(c34)C[C@H]21 [ML1]	–	–	1.93E+06	–
CC1(CO)COC(=O)[C@H]1NC(=O)c1nn(CCCCF)c2ccccc12 (stereo partly shown) [MB12]	–	–	–	Absolute peak area, Zebrafish larvae [25 μM] (zebrafish larvae): 1.68E+06
CCCCC(C(=O)c1ccc(F)cc1)[N+]1([O-])CCCC1 (stereo not shown) [MP8]	2.50E+06	–	1.47E+05	–
CCCCC(C(O)c1ccc(F)cc1)N1CCCC1 (stereo not shown) [MP2]	2.98E+07	1.18E+07	6.41E+07	Detection in pHLS9 [25 µM] [1, 2]: +
COc1ccc(CC(C)N(O)Cc2ccccc2O)cc1OC (stereo not shown) [MN9]	3.57E+05	–	–	–
CCC(=O)n1cc2c3c(cccc31)C1=C[C@@H](C(=O)O)CN(C)[C@@H]1C2 [ML8]	1.07E+06	–	–	–
CCN(CC)C(=O)[C@@H]1C=C2c3cccc4[nH]cc(c34)C[C@H]2NC1 [ML5]	1.07E+07	1.75E+07	3.37E+07	Detection in pHLS9 [25 µM] [1, 4]: +
CCN(CCOC1OC(C(=O)O)C(O)C(O)C1O)C(=O)C1C=C2c3cccc4[nH]cc(c34)CC2N(C)C1 (stereo not shown) [ML28]	–	–	1.07E+05	–
COc1ccccc1CN(O)C(C)Cc1ccc(OC)c(OC)c1 (stereo not shown) [MN12]	8.81E+06	–	4.60E+05	–
COc1ccc(CC(C)N)cc1OC (stereo not shown) [MN1]	3.29E+07	4.04E+07	9.84E+07	Detection in pHLS9 [25 µM] [1, 3]: +

SMILES	Absolute peak area, Zebrafish larvae [100 µM] (zebrafish larvae)	Absolute peak area, HepaRG [25 μM] (HepaRG cells)	Absolute peak area, HepaRG [250 μM] (HepaRG cells)	further results
CCCCC(N)C(=O)c1ccc(F)cc1 (stereo not shown) [MP1]	4.83E+05	1.48E+05	1.82E+06	Detection in pHLS9 [25 µM] [1, 2]: +
CC(CCC(C(=O)c1ccc(F)cc1)N1CCCC1)OC1OC(C(=O)O)C(O)C(O)C1O (stereo not shown) [MP11]	1.15E+06	–	–	Detection in pHLS9 [25 µM] [1, 2]: +
CCCC(C(=O)c1ccc2c(c1)OCO2)N(O)CC (stereo not shown) [ME7]	1.10E+06	–	1.75E+06	Detection in pHLS9 [25 µM] [1, 5]: +
CCC(=O)n1cc2c3c(cccc31)C1=C[C@@H](C(=O)N(CC)CCO)CN(C)[C@@H]1C2 [ML23]	3.31E+07	–	–	–
CCC(=O)n1cc2c3c(cccc31)C1=C[C@@H](C(=O)N(CC)CC)CN[C@@H]1C2 [ML20]	3.77E+07	3.19E+04	3.74E+06	Detection in pHLS9 [25 µM] [1, 4]: +
CCNC(=O)[C@@H]1C=C2c3cccc4c3c(cn4C(=O)CC)C[C@H]2NC1 [ML12]	4.11E+05	–	–	–
CCNC(=O)[C@@H]1C=C2c3cccc4[nH]cc(c34)C[C@H]2NC1 [ML3]	3.30E+05	3.89E+05	2.20E+06	–
CC(C)(C)[C@H](NC(=O)c1nn(CCCCF)c2ccccc12)C(=O)O[C@@H]1O[C@H](C(=O)O)[C@@H](O)[C@H](O)[C@H]1O [MB22]	–	2.56E+07	3.25E+07	–
CCCCC(C(O[C@@H]1O[C@H](C(=O)O)[C@@H](O)[C@H](O)[C@H]1O)c1ccc(F)cc1)N1CCCC1 (stereo partly shown) [MP10]	–	–	2.91E+04	Detection in pHLS9 [25 µM] [1, 2]: +
CC1(C)COC(=O)[C@H]1NC(=O)c1n[nH]c2ccccc12 [MB2]	–	–	–	Absolute peak area, Zebrafish larvae [25 μM] (zebrafish larvae): 5.13E+05
COc1ccc(CC(C)NCc2ccccc2O[C@@H]2O[C@H](C(=O)O)[C@@H](O)[C@H](O)[C@H]2O)cc1OC (stereo partly shown) [MN22]	–	–	–	Detection in pHLS9 [25 µM] [1, 3]: +
CCNC(=O)[C@@H]1C=C2c3cccc4c3c(cn4C(=O)CC)C[C@H]2N(C)C1 [ML17]	1.48E+08	–	–	Detection in pHLS9 [25 µM] [1, 4]: +
COC(=O)C(NC(=O)c1nn(CCCC(=O)OC2OC(C(=O)O)C(O)C(O)C2O)c2ccccc12)C(C)(C)C (stereo not shown) [MB24]	–	–	–	Absolute peak area, Zebrafish larvae [25 μM] (zebrafish larvae): 2.34E+05
CCCC(NCC)C(O)c1ccc2c(c1)OCO2 (stereo not shown) [ME5]	7.64E+06	–	–	Detection in pHLS9 [25 µM] [1, 5]: +
CC(O)CCC(C(=O)c1ccc(F)cc1)N1CCCC1 (stereo not shown) [MP5]	7.71E+06	1.14E+06	1.07E+07	Detection in pHLS9 [25 µM] [1, 2]: +
CCN(CCO)C(=O)C1C=C2c3cccc4[nH]cc(c34)CC2N(C)C1 (stereo not shown) [ML14]	3.90E+06	4.01E+05	4.63E+06	–
CC(C)(C)[C@H](NC(=O)c1nn(CCCC(=O)O)c2ccccc12)C(=O)O [MB10]	–	1.68E+05	8.32E+05	Absolute peak area, Zebrafish larvae [25 μM] (zebrafish larvae): 5.72E+04
COc1ccccc1CNC(C)Cc1ccc(O)c(O)c1 (stereo not shown) [MN2]	–	–	–	Detection in pHLS9 [25 µM] [1, 3]: +
CCCCC(C(=O)c1ccc(F)cc1)N1CCC(=O)C1 (stereo not shown) [MP3]	7.58E+04	–	–	–

Reference: article PMC7380166, “How to Study the Metabolism of New Psychoactive Substances for the Purpose of Toxicological Screenings—A Follow-Up Study Comparing Pooled Human Liver S9, HepaRG Cells, and Zebrafish Larvae” (Frontiers in Chemistry, 2020)
